Reference: patent publication US20190322643A1 (Georgia State University Research Foundation, Inc., priority 2016, published 2019)

How the values were obtained:
[1] = target: T1, Mouse histone methyltransferase G9a (969-1263) (Mus musculus, UniProt Q9Z148); assay: MALDI-TOF methylation study of G9a inhibition; type: biochemical; conditions: inhibitors at 5 μM concentration for 30 min
T1 construct: The 6His-sumo mG9a (969-1263) protein was purified using the following procedure; 6His-sumo (cleaved yes); made in house; host or cells: Escherichia coli BL21 (DE3)
T1 sequence (Q9Z148 969-1263): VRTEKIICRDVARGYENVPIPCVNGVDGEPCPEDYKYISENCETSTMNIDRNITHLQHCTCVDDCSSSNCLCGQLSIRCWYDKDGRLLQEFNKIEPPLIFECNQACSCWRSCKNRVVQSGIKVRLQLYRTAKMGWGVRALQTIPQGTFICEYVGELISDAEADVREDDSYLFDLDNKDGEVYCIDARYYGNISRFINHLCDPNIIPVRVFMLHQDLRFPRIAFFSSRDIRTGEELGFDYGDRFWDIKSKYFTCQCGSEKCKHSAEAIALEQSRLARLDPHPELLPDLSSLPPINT
Protocol: Mouse histone methyltransferase G9a (969-1263) cDNA was amplified from the cDNA of BALB/c mouse thymus, and the fragment was sub-cloned into a vector with a 6His-sumo tag. […] The 6His-sumo mG9a (969-1263) protein was purified using the following procedure: harvested cell pellet was re-suspended in 20 mM Tris (pH 8.0), 500 mM NaCl, 0.1% β-mercaptoethanol, and 1 mM PMSF. Cells were lysed by sonicating for 15 seconds with 6 second intervals for a total time of 15 minutes on an ice bath. […] The 6His-sumo tag was cleaved from the column by adding Ubiquitin-like-specific protease 1 (ULP-1) at 4° C. for 12 hours. Wash buffer was then run through the Ni^+ column again and the elution buffer collected. Subsequently, advanced protein purification was done by HiTrap Q HP sequential Superdex 200 10/300 GL. Elute of every step was analyzed by SDS PAGE, stained by Coomassie brilliant blue (CBB). […] The reaction was incubated at room temperature for 30 min, and stopped by TFA. 1 μL of the sample was mixed with CHCA matrix and m/z peaks were obtained at reflection positive mode. The results of mass spectrum were analyzed using the Bruker flex analysis software and data processing was carried out as described below. MALDI-TOF based experiments were performed according to the protocol developed by Chang et al. (Nat. Struct. Mol. Biol. 2009, 16, 312-317). MALDI spectra were collected using Bruker flex control software and analyzed by flex analysis. After labelling each cluster peaks of H3K9Me0, H3K9Me1 and H3K9Me2 for all of the tested concentrations, area under the cluster (AUC) were extracted by using the same flex analysis software. % abundance of each peak was calculated by following formula: A=% Abundance of (H3K9Me0)=area of H3K9Me0/(area of H3K9Me0+area of H3K9Me1+area of H3K9Me2) B=% Abundance of (H3K9Me1)=area of H3K9Me1/(area of H3K9Me0+area of H3K9Me1+area of H3K9Me2) C=% Abundance of (H3K9Me2)=area of H3K9Me2/(area of H3K9Me0+area of H3K9Me1+area of H3K9Me2). This was repeated for each spectra (3 multiples for each samples). […] Finally % inhibition was found by subtracting % MA(i) from 100. […] A biochemical assay using MALDI-TOF was used to visualize the effects of the synthesized compounds on G9a enzymatic activity. […] Struct. Mol. Biol. 2009, 16, 312-317).

G9a = target: T2, G9a (Homo sapiens, UniProt Q96KQ7); assay: H3K9Me2 cell immunofluorescence in-cell Western (ICW) assay; type: cell-based; conditions: MDA-MB-231 cell line, 48 h
T2 construct: endogenous in cells; host or cells: MDA-MB-231
T2 sequence (Q96KQ7 1-1210): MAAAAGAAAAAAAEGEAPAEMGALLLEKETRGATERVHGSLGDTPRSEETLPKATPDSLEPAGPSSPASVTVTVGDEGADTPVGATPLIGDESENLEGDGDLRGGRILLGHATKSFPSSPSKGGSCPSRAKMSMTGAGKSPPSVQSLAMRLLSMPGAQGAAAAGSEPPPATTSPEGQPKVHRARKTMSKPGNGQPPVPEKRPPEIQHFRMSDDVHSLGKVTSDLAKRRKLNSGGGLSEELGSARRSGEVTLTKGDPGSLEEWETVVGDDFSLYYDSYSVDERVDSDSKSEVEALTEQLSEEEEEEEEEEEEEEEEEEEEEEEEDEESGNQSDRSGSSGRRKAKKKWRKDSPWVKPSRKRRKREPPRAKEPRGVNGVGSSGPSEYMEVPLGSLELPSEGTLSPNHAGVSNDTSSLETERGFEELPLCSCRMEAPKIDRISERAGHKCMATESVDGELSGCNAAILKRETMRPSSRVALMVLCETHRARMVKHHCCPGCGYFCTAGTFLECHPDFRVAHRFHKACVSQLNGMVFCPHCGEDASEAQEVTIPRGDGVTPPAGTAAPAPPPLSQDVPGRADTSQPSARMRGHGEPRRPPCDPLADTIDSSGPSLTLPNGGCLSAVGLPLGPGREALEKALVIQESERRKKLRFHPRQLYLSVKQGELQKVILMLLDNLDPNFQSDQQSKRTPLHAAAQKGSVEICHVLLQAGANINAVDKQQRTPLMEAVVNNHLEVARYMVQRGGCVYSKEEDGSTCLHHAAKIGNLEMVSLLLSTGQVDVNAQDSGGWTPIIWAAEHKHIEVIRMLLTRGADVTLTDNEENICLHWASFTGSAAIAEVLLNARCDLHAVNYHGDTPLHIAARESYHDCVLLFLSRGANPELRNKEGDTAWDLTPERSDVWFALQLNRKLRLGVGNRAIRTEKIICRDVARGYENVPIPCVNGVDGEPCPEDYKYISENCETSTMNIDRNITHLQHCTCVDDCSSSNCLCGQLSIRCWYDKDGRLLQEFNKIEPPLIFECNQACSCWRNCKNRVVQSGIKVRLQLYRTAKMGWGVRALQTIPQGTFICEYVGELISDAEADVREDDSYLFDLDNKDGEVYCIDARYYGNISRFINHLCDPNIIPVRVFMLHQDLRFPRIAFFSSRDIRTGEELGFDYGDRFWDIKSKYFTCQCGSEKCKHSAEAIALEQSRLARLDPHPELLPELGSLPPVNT
Protocol: After the incubation, the media was removed and 100 μl fixation and permeabilization solution (2% formaldehyde in PBS) for fixation was added for 30 min. And then use 200 μl 0.1% Triton X100 in PBS washing solution to wash (allow wash to shake on a plate shaker for 5 minutes). After five washes, cells were blocked for 1 h with 150 μl blocking buffer to each well (1% BSA in PBS) (allow blocking at RT with moderate shaking on a plate shaker). After 1 h, remove the blocking buffer from the blocking step and add primary antibody in blocking buffer to cover the bottom of each well. […] The plates were read on an Odyssey CLX (LiCor) scanner at both 800 nm (H3K9me2 signal) and 700 nm (cell tag 700 stain signal) channels. IC50s were calculated using GraphPad Prizm statistical package with sigmoidal variable slope dose response curve fit.

A549 = assay: Cytotoxicity / anti-proliferation assay (CCK-8), A549; type: cell-based; conditions: Homo sapiens, 72 h, CCK-8 kit
Protocol: (§1) Then the cells were exposed to the different inhibitors with various concentrations for 72 h. […] EC50s were calculated using GraphPad Prizm statistical package with sigmoidal variable slope dose response curve fit.
(§2) Cell anti-proliferation assays were performed to determine the toxicity of these inhibitors. […] These compounds were further evaluated against the control cell line HEK293 to test their toxicity with a non-cancerous cell line.

HCT-8 = assay: Cytotoxicity / anti-proliferation assay (CCK-8), HCT-8; type: cell-based; conditions: Homo sapiens, 72 h, CCK-8 kit
Protocol: as §1, §2

SMILES | inhibition at 5 µM [1] [%] | IC50 (G9a) [µM] | EC50 (A549) [µM] | EC50 (HCT-8) [µM]
COc1ccc2c(NCCNC(=O)CCCCCC(=O)NO)nc(N3CCCN(C)CC3)nc2c1 [Compound 22, N1-hydroxy-N7-(2-((7-methoxy-2-(4-methyl-1,4-diazepan-1-yl)quinazolin-4-yl)amino)ethyl)heptanediamide] | 40.3 ± 15.3 | 60.6 ± 3.66 | > 100 | > 100
COc1cc2nc(N3CCCN(C)CC3)nc(NC3CCN(C(=O)CCCCCC(=O)NO)CC3)c2cc1OC [Compound 20, 7-(4-((6,7-dimethoxy-2-(4-methyl-1,4-diazepan-1-yl)quinazolin-4-yl)amino)piperidin-1-yl)-N-hydroxy-7-oxoheptanamide] | 14.6 ± 15.8 | 97.5 ± 2.78 | > 100 | > 100
COc1ccc2c(NC3CCN(C)CC3)nc(NCCNC(=O)CCCCCC(=O)NO)nc2c1 [Compound 14a, N1-hydroxy-N7-(2-((7-methoxy-4-((1-methylpiperidin-4-yl)amino)quinazolin-2yl)amino)ethyl) heptanediamide] | 29.7 ± 23.3 | 46.8 ± 1.97 | > 100 | > 100
COc1ccc2c(NC3CCN(C)CC3)nc(NCCNC(=O)CCCCC(=O)NO)nc2c1 [Compound 15a, N1-hydroxy-N6-(2-((7-methoxy-4-((1-methylpiperidin-4-yl)amino)quinazolin-2-yl)amino)ethyl)adipamide] | 69.1 ± 24.5 | 47 ± 3.33 | > 100 | > 100
COc1ccc2c(NC3CCN(C)CC3)nc(NCCNC(=O)CCCC(=O)NO)nc2c1 [Compound 16a, N1-hydroxy-N5-(2-((7-methoxy-4-((1-methylpiperidin-4-yl)amino)quinazolin-2-yl)amino)ethyl)glutaramide] | 40.3 ± 13.8 | 45.7 ± 1.76 | > 100 | > 100
COc1cc2nc(N3CCCN(C)CC3)nc(NC3CCN(C(=O)CCCCCCC(=O)NO)CC3)c2cc1OC [Compound 19, 8-(4-((6,7-dimethoxy-2-(4-methyl-1,4-diazepan-1-yl)quinazolin-4-yl)amino)piperidin-1-yl)-N-hydroxy-8-oxooctanamide] | 10.7 ± 25.9 | 99.6 ± 3.13 | > 100 | > 100
COc1ccc2c(NC3CCN(Cc4ccccc4)CC3)nc(NCCNC(=O)CCCC(=O)NO)nc2c1 [Compound 16, N1-(2-((4-((1-benzylpiperidin-4-yl)amino)-7-methoxyquinazolin-2-yl)amino)ethyl)-N5-hydroxyglutaramide] | 40.3 ± 13.8 | 90.3 ± 3.75 | – | 83.9
COc1ccc2c(NC3CCN(Cc4ccccc4)CC3)nc(NCCNC(=O)CCCCC(=O)NO)nc2c1 [Compound 15, N1-(2-((4-((1-benzylpiperidin-4-yl)amino)-7-methoxyquinazolin-2-yl)amino)ethyl)-N6-hydroxyadipamide] | 47.9 ± 12.9 | 72.1 ± 1.37 | > 100 | > 100
COc1ccc2c(NCCNC(=O)CCCCCCC(=O)NO)nc(N3CCCN(C)CC3)nc2c1 [Compound 21, N1-hydroxy-N8-(2-((7-methoxy-2-(4-methyl-1,4-diazepan-1-yl)quinazolin-4 yl)amino)ethyl)octanediamide] | 22.8 ± 26.7 | – | > 100 | > 100
